Source: US5510255A, “Plant fatty acid synthases” (priority 1993, dated 1996)

Legend:
[1] = biological target: T1, type-I synthase (Ricinus communis, UniProt Q41135); assay: biochemical; parameters: species or system R. communis
T1 construct: mature plastid protein
T1 sequence (Q41135 43-469): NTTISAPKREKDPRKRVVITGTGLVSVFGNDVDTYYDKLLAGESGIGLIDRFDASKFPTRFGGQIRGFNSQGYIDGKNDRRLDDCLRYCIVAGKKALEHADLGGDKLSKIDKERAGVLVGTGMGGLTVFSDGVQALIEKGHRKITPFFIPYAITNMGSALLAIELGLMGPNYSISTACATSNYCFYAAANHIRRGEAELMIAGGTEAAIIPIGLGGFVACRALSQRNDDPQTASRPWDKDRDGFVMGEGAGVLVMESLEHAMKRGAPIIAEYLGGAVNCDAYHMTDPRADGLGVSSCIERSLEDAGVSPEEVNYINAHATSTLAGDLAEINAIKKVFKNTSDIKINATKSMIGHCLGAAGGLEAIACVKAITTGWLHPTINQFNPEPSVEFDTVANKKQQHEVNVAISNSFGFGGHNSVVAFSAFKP

[2] = biological target: T2, type-II synthase (Ricinus communis, UniProt Q41134); assay type: biochemical, R. communis
T2 construct: mature plastid protein
T2 sequence (Q41134 117-535): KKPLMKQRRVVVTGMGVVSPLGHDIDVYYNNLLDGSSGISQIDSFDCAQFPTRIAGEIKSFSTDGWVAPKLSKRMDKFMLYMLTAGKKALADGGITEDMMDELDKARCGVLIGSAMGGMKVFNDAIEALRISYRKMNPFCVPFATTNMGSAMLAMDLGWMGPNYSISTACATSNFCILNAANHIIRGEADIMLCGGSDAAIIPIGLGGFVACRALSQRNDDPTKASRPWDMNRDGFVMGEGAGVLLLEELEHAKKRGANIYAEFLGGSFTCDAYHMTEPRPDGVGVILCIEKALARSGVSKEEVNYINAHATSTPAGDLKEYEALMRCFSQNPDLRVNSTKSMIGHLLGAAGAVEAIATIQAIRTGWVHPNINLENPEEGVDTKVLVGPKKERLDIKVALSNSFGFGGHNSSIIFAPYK

[3] = tested on: synthase I; details: cited from earlier work
[4] = biological target: T3, Synthase I (Arabidopsis thaliana, UniProt P52410); assay: Inhibition with cerulenin; assay type: biochemical
T3 sequence (P52410 47-473): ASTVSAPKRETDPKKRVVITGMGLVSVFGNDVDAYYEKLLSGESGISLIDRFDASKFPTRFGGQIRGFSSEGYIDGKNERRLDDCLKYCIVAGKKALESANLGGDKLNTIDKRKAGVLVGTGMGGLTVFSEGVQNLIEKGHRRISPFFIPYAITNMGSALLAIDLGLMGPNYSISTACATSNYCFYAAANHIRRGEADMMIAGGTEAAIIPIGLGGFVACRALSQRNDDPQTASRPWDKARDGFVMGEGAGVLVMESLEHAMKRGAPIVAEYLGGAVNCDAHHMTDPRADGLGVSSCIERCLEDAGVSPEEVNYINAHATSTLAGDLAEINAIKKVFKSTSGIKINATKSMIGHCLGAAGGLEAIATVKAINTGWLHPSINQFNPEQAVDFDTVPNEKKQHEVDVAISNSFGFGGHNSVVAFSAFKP
Excerpt: (§1) Other plant synthases may also find applicability by this invention, including synthase III type activities. Differences between synthases I, II, and III are also observed in inhibition with cerulenin. […] In FIG. 1, a time course assay of cerulenin effects on synthase I and synthase II activities is provided.

[5] = biological target: T4, synthase III (Arabidopsis thaliana, UniProt P49243); assay: Inhibition with cerulenin; assay type: biochemical
T4 sequence (P49243 44-404): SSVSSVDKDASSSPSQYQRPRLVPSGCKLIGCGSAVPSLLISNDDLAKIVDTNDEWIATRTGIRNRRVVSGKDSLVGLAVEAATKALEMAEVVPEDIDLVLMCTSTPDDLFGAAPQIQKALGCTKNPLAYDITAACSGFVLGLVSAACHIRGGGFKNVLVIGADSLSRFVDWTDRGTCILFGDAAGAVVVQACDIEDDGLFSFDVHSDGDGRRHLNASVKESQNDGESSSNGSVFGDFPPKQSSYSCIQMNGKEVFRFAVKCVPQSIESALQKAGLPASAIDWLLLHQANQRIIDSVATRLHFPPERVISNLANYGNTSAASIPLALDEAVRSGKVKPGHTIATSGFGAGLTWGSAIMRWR
Excerpt: as §1

[6] = biological target: T5, synthase II (Arabidopsis thaliana, UniProt Q9C9P4); assay: Inhibition with cerulenin; assay type: biochemical
T5 sequence (Q9C9P4 104-541): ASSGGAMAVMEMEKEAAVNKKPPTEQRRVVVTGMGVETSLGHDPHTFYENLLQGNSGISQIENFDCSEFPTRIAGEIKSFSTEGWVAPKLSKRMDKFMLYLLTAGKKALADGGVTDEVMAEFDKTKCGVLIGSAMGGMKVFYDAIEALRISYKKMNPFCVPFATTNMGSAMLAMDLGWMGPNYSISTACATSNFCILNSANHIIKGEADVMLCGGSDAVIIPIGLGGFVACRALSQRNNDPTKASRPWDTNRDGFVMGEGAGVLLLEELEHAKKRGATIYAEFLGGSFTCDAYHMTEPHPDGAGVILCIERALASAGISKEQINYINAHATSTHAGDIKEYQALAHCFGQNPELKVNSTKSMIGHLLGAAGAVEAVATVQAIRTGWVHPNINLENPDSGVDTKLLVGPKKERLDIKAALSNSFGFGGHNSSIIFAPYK
Excerpt: as §1

[7] = tested on: T6, synthase I; assay: Cerulenin sensitivity of cellulose phosphate flow-through fraction; assay type: biochemical, S. oleracea; details: 0.25 h, 5 μM cerulenin, 15 minutes, room temperature, read-out: reduction of decanoyl-ACP activity
T6 construct: from tissue; host or cells: S. oleracea leaf, cellulose phosphate flow-through
Experimental: (§2) Each enzyme source is incubated with 5 μM cerulenin for 15 minutes at room temperature before being assayed with each of the acyl-ACP substrates. After incubation with cerulenin, the decanoyl-ACP activity is reduced 99% in the cellulose phosphate flow-through fraction and only 69% in the synthase II fraction. The palmitoyl-ACP activity in the synthase II fraction is not inhibited by the cerulenin treatment.

[8] = tested on: synthase II; assay: Cerulenin sensitivity of synthase II fraction from cellulose phosphate; assay type: biochemical, S. oleracea; details: 5 μM cerulenin, 15 minutes, room temperature
Experimental: as §2

[9] = tested on: synthase II; details: cited from earlier work
[10] = cerulenin concentrations above 50 μM

SMILES: C/C=C/C/C=C/CCC(=O)[C@H]1O[C@H]1C(N)=O [cerulenin]
- inactivation of type-I synthase [1]: completely inactivated
- inhibition at 5 µM ([1]; read-out: inhibition of activity with C10:0-ACP): > 80%
- sensitivity of activity with C16:0-ACP (type-II synthase) to cerulenin [2]: virtually insensitive
- reaction with active site of synthase I ([3]; 5 μM cerulenin): reacts readily
- reaction with synthase I [3, 10]: react readily
- sensitivity of synthase I to cerulenin [4]: most sensitive
- sensitivity of synthase III to cerulenin [5]: least sensitive
- sensitivity of synthase II to cerulenin [6]: less sensitive
- inhibition at 5 µM [7]: 99%
- inhibition of palmitoyl-ACP activity [8]: not inhibited
- reduction of decanoyl-ACP activity [8]: 69%
- reaction with active site of synthase II ([9]; 5 μM cerulenin): not synthase II
- reaction with synthase II [9, 10]: react readily
